Tested on: Spodoptera eridania
Assay: Southern armyworm (Spodoptera eridania), 2nd instar larvae, on dipped lima bean foliage
Assay type: in vivo
Details: 300 ppm, at 5 days
Protocol: The active compounds were formulated • a. for testing the activity against Aphis gossypii, Myzus persicae, and Aphis fabae, as 50:50 acetone:water solutions amended with 100 ppm Kinetic® (surfactant), • b. for testing the activity against Spodoptera eridania as a 10.000 ppm solution in a mixture of 35% acetone and water, which was diluted with water, if needed.
After the experiments were completed, in each case the lowest concentration was determined at which the compound still caused an 75 to 100% inhibition or mortality in comparison with untreated controls (limit or minimal concentration).
Foliage of two Sieva lima beans plants at the first expanded true-leaf stage that are contained within a single 3.8 cm square plastic pot are dipped into the test solution with agitation for 3 seconds and allowed to dry in a hood. The pot is then placed in a 25.4 cm plastic zipper top bag and infested with ten 2nd instar caterpillars. At 5 days, observations are made of mortality, reduced feeding, or any interference with normal molting.

OCCNC(=S)NC(Cc1cccc(C(F)(F)F)c1)c1cc(Cl)ccc1Cl (stereo not shown) [Example 77]
mortality in comparison with untreated controls: over 75%

Reference: US20080161403A1, “1-(1,2 Diphenyl-Ethyl)-3-(2-Hydroxyethyl)-Thiourea Compounds For Combating Animal Pests” (priority 2005, published 2008)
